The results in this text go back to ChEMBL document CHEMBL1157197, “Design, synthesis and trypanocidal activity of lead compounds based on inhibitors of parasite glycolysis” (Bioorg Med Chem, 2008).

Structures are written as SMILES.

Assay [1] addresses T1, Pyruvate kinase (Leishmania mexicana) (UniProt Q27686).
T1 sequence (whole entry): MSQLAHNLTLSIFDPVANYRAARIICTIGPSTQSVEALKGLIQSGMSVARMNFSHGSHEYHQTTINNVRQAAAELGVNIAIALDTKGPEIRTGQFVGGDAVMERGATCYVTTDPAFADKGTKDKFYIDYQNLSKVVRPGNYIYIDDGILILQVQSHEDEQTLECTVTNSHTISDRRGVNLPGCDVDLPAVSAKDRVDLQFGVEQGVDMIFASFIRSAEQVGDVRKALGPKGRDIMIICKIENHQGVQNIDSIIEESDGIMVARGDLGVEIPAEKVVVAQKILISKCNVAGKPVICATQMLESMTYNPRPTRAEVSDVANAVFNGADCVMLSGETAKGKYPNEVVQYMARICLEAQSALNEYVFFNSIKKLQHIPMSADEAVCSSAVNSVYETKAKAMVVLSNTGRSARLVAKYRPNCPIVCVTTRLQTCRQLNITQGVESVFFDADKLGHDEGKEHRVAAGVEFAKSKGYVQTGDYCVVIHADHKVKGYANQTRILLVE
Briefly: Inhibition of Leishmania mexicana pyruvate kinase assessed as enzyme residual activity at 5 mM.

Assay [2] addresses T2, ATP-dependent 6-phosphofructokinase (Trypanosoma brucei) (UniProt O15648).
T2 sequence (whole entry): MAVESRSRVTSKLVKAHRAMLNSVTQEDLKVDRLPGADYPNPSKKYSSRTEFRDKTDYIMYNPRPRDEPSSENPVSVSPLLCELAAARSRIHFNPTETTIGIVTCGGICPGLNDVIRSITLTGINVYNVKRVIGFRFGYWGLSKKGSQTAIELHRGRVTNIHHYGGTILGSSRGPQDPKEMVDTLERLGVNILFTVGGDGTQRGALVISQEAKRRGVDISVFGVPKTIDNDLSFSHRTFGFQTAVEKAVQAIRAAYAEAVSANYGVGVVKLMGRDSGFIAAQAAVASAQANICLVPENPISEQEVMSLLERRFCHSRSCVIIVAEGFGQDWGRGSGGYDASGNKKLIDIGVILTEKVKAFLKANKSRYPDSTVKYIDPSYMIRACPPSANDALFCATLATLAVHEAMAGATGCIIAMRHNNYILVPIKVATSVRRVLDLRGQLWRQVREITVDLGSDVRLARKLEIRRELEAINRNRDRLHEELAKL
The assay can be described thus: Inhibition of Trypanosoma brucei phosphofructokinase assessed as enzyme residual activity at 5 mM.

Consider `C[C@@H](NC[C@H]1O[C@H](CO)[C@@H](O)[C@@H]1O)c1ccc(F)cc1`, for which the Activity in assay [1] was 53%.

For `CC(C)C[C@@H](CO)NC[C@H]1O[C@H](CO)[C@@H](O)[C@@H]1O`, the Activity in assay [1] is 73%; in assay [2], 64%.

As for `Cc1ccc(C)c(CNC[C@H]2O[C@H](CO)[C@@H](O)[C@@H]2O)c1`, in assay [2], the Activity is 69%.

In the case of `CC(C)C[C@H](CO)NC[C@H]1O[C@H](CO)[C@@H](O)[C@@H]1O`, the figures for the Activity in assay [1] and in assay [2] were 86% and 52%, respectively.

Regarding `OC[C@H]1O[C@H](CNCc2cccc(F)c2)[C@@H](O)[C@@H]1O`, the Activity is 100% in assay [1] and 57% in assay [2].

`Cc1ccc(CNC[C@H]2O[C@H](CO)[C@@H](O)[C@@H]2O)c(C)c1`: the Activity in assay [1] stood at 103%; in assay [2], 87%.

For the molecule `OC[C@H](Cc1ccccc1)NC[C@H]1O[C@H](CO)[C@@H](O)[C@@H]1O`, the results for the Activity in assay [1] and in assay [2] were 72% and 83%, respectively.

In the case of `OC[C@H]1O[C@H](CN[C@@H]2C[C@@H]3CC[C@@H]2C3)[C@@H](O)[C@@H]1O`, the Activity in assay [1] amounted to 47%.

On to `C=CCNC(=O)[C@H]1O[C@H](CNC2CCCCCC2)[C@@H](O)[C@@H]1O`, for which the Activity in assay [1] is 19.1%.

Regarding `OC[C@H]1O[C@H](CNCc2cccc(C(F)(F)F)c2)[C@@H](O)[C@@H]1O`, the Activity amounted to 105% in assay [1] and 46% in assay [2].

Turning to `OC[C@H]1O[C@H](CNCc2ccccc2F)[C@@H](O)[C@@H]1O`, the values for the Activity in assay [1] and in assay [2] were 42% and 63%, respectively.

Consider `OC[C@H]1O[C@H](CNCc2ccccc2Cl)[C@@H](O)[C@@H]1O`, for which the results for the Activity in assay [1] and in assay [2] were 71% and 65%, respectively.

Turning to `OC[C@H]1O[C@H](CNCc2ccc(F)cc2)[C@@H](O)[C@@H]1O`, the results for the Activity in assay [1] and in assay [2] were 107% and 59%, respectively.

For `OC[C@H]1O[C@H](CNC(c2ccccc2)c2ccccc2)[C@@H](O)[C@@H]1O`, the Activity in assay [1] was 89%; in assay [2] it was 30%.

Take `O=C(NCc1ccccc1)[C@H]1O[C@H](CNC2CCCCCC2)[C@@H](O)[C@@H]1O`: the Activity in assay [1] turned out to be 11.5%.

For the molecule `OCC(Cc1ccccc1)NC[C@H]1O[C@H](CO)[C@@H](O)[C@@H]1O` (stereo not given in full), the results for the Activity in assay [1] and in assay [2] were 59% and 47%, respectively.

With `OC[C@H]1O[C@H](CNC2CCc3ccccc32)[C@@H](O)[C@@H]1O` (stereo not given in full), the Activity was determined as 86% in assay [1] and 41% in assay [2].

As for `OC[C@H]1O[C@H](CNCc2ccc(Cl)cc2)[C@@H](O)[C@@H]1O`, the Activity in assay [1] came to 81%; in assay [2] it was 65%.

Turning to `OC[C@H]1O[C@H](CN[C@@H]2c3ccccc3C[C@@H]2O)[C@@H](O)[C@@H]1O`, the Activity in assay [1] was found to be 60%; in assay [2], 57%.

Regarding `OC[C@@H](Cc1ccccc1)NC[C@H]1O[C@H](CO)[C@@H](O)[C@@H]1O`, the figures for the Activity in assay [1] and in assay [2] were 97% and 77%, respectively.

Turning to `CC[C@@H](C)NC[C@H]1O[C@H](CO)[C@@H](O)[C@@H]1O`, the Activity in assay [1] was 28%.

On to `OCCC(NC[C@H]1O[C@H](CO)[C@@H](O)[C@@H]1O)c1ccccc1` (stereo not given in full), for which the Activity in assay [1] worked out at 85%; in assay [2], 47%.

Take `O=C(Nc1ccccc1)[C@H]1O[C@H](CNC2CCCCCC2)[C@@H](O)[C@@H]1O`: the Activity in assay [1] was 24.8%.

Turning to `OC[C@H]1O[C@H](CNCc2ccc(-c3ccccc3)cc2)[C@@H](O)[C@@H]1O`, the Activity in assay [2] amounted to 75%.

On to `C[C@H](NC[C@H]1O[C@H](CO)[C@@H](O)[C@@H]1O)c1ccc(F)cc1`, for which the Activity in assay [1] stood at 36%.

Turning to `OC[C@H]1O[C@H](CNCc2ccc(Cl)cc2Cl)[C@@H](O)[C@@H]1O`, the Activity in assay [2] was determined as 58%.

For `C[C@@H](NC[C@H]1O[C@H](CO)[C@@H](O)[C@@H]1O)c1ccc(Cl)cc1`, in assay [1], the Activity stood at 84%.

With `O=C(Nc1ccc([N+](=O)[O-])cc1)[C@H]1O[C@H](CNC2CCCCCC2)[C@@H](O)[C@@H]1O`, the Activity in assay [1] came to 12.5%.

For the molecule `C[C@H](NC[C@H]1O[C@H](CO)[C@@H](O)[C@@H]1O)c1ccc(Cl)cc1`, in assay [1], the Activity amounted to 58%.
